Results taken from PMC5991393, “Pharmacokinetic properties of a novel inosine analog, 4′-cyano-2′-deoxyinosine, after oral administration in rats” (PLoS ONE, 2018).
“Also recorded” adds a separate entry of the source.

Legend:
[1] = tested on: HBVA181T/N236T; parameters: method as in PMID 26122273; details: adefovir dipivoxil-resistant variant; cited from earlier work
[2] = tested on: wild-type HBV; parameters: method as in PMID 26122273; details: cited from earlier work
[3] = tested on: HBVL180M/S202G/M204V; parameters: method as in PMID 26122273; details: entecavir-resistant variant; cited from earlier work
[4] = Pharmacokinetic study of oral co-administration of SK14-061a and ETV in rats; type: in vivo
Protocol: At stipulated times after the administration (15 min, 45 min, 90 min, 3, 6 and 9 hr), venous blood samples were collected by means of a heparinized syringe (0.25ml). The blood samples were centrifuged (3,000 rpm, 10 min) to obtain plasma. […] All data are expressed as the mean ± S.D. Statistical analyses for multiple comparisons were determined by an analysis of variance (two-way ANOVA) using the Bonferroni correction for multiple comparisons. A probability value of p < 0.05 was considered to be significant. A non-compartment model was used for the pharmacokinetic analysis. Parameters were calculated using the program of a moment analysis developed by Tabata et al. Half-life (t1/2) were calculated from the elimination phase. Area under the concentration-time curve (AUC) were calculated using the following equations: AUC=∫0∞Cdt

[5] = Clinical chemistry (liver and kidney toxicity) after oral SK14-061a; type: in vivo, Sprague-Dawley rats; details: p.o., 1 mg/kg, 9 hr after administration
Protocol: Sprague-Dawley rats (male, 230–270 g) were purchased from the Kyudo Co., Ltd. (Saga, Japan). All animals were maintained under conventional housing conditions, with food and water ad libitum in a temperature-controlled room with a 12 hr dark/light cycle. Maintenance of the animals and the experimental procedures performed on them were carried out in accordance with NIH guidelines. All animal experiments were reviewed and approved by the Animal Care and Use committee of Sojo University (Permit #: 2015-P-020). Eight rats were divided into two group: non-treatment group as a control (n = 4) and SK14-061a-treated group (p.o., 1 mg/kg, n = 4). […] The blood samples were centrifuged (3,000 g, 5 min) to obtain plasma for analysis of aspartate aminotransferase (AST), alanine aminotransferase (ALT), urea nitrogen (BUN) and creatinine. All plasma samples were stored at -80 °C prior to analysis by a commercial clinical testing laboratory (Oriental Yeast Co., Tokyo, Japan).

[6] = target: T1, Human serum albumin (HSA) (Homo sapiens, UniProt P02768); assay: Protein binding by ultrafiltration, HSA; type: in vitro ADME; details: 600 μM HSA, 500 ng/mL
T1 construct: purchased Sigma-Aldrich (Tokyo, Japan)
Protocol: (§1) Protein binding assays were performed following a previous reported procedure, with minor modifications. In short, pooled human plasma, 600 μM HSA and 45 μM AGP were spiked with an aqueous solution of SK14-061a to produce a final SK14-061a concentration of 500 ng/mL, respectively. The unbound drug fraction was determined by ultrafiltration. Ultrafiltration was carried out using an Amicon® Ultra-0.5 mL centrifugal filter unit with an Ultracel®-30 membrane (Merck Millipore Company, MA). Samples of 500 μL were centrifuged at 14,000 g for 10 min. The SK14-061a concentration were determined by LC-MS without the SPE method.

[7] = Tissue distribution to liver and kidney after oral administration; type: in vivo; details: rats, p.o., 1 mg/kg
Protocol: (§2) Rats were fasted for 12 h but with free access to water before dosing. Rats were orally (p.o.) administered a SK14-061a solution at a dose of 1 mg/kg. At stipulated times after the administration (15 min, 45 min, 90 min, 3, 4.5, 6 and 9 hr), venous blood samples were collected from tail vein using a heparinized syringe (0.25ml). The blood samples were centrifuged (3,000 rpm, 10 min) to obtain plasma. Urine samples were collected in a metabolic cage for 9 hr after the administration of the SK14-061a solution. After obtaining the last blood sample, all rats were sacrificed and kidneys and liver collected. To determine the time-dependent tissue distribution of SK14-061a, rats were sacrificed and organs (kidneys and liver) were collected at 1 and 3 hr after the oral administration of SK14-061a at a dose of 1 mg/kg. To calculate bioavailability, plasma concentrations of SK14-061a after intravenous administration (1 mg/kg) were also obtained at 3 min, 15 min, 30 min, 1, 3, 6 and 9 hr. Before the LC-MS analysis, plasma samples that were collected for pharmacokinetic studies were treated in the same manner as described in the "Validation assays" section. A portion of the liver and kidney tissues (about 500 mg) were homogenized in water (1 mL). The homogenized samples were subsequently ultracentrifuged at 100,000 g for 1 hr, and the supernatant collected. Urine samples were centrifuged (3,000 rpm, 10 min) and the supernatants were used in the analyses. All samples derived from organs and urine were processed using a Waters Oasis MCX 96 well plate in the same manner as was used for the plasma samples before the LC-MS analysis.

[8] = tested on: HIV-1M184V; parameters: method as in PMID 15200030; details: lamivudine-resistant; cited from earlier work
[9] = Urinary excretion of unchanged SK14-061a after oral administration; type: in vivo, rats
Protocol: as §2, with “Urine samples were collected in a metabolic cage for 9 hr after the administration of the SK14-061a solution.” left out

[10] = Pharmacokinetic study of SK14-061a after oral and intravenous administration in rats; type: in vivo; details: 1 mg/kg
Protocol: as §2, with “analysis. All data are expressed as the mean ± S.D. Statistical analyses for multiple comparisons were determined by an analysis of variance (two-way ANOVA) using the Bonferroni correction for multiple comparisons. A probability value of p < 0.05 was considered to be significant. A non-compartment model was used for the pharmacokinetic analysis. Parameters were calculated using the program of a moment analysis developed by Tabata et al. Half-life (t1/2) were calculated from the elimination phase. Area under the concentration-time curve (AUC) were calculated using the following equations: AUC=∫0∞Cdt” for “analysis.”

[11] = tested on: HIV-1MDR; parameters: method as in PMID 15200030; details: clone with Ala62Val, Val75Leu, Phe77Leu, Phe116Tyr, Gln115Met; cited from earlier work
[12] = Protein binding by ultrafiltration, pooled human plasma; type: in vitro ADME; details: read-out: protein binding rate in human pooled plasma (converted)
Protocol: as §1

[13] = Metabolism assay in vitro with rat liver microsomes; type: in vitro ADME; details: 100 ng/ml, 0.2 mg/ml rat liver microsomal protein, 60 min, 37°C
Protocol: SK14-061a (100 ng/ml) was incubated with the incubation mixtures (0.1 M potassium phosphate buffer (pH 7.4), 10 mM MgCl2, 1 mM EDTA, 1 mM NADP+, 10 mM glucose-6-phosphate, 10 units/ml glucose-6-phosphate dehydrogenase, and 0.2 mg/ml of rat liver microsomal protein). After a 5 min pre-incubation of the incubation mixture at 37°C, the metabolic reactions were initiated by the addition of SK14-061a. After 60 min, the SK14-061a was extracted from the incubation samples using the SPE method, and the SK14-061a concentration determined by LC-MS.

[14] = tested on: human α1-acid glycoprotein (AGP); assay: Protein binding by ultrafiltration, AGP; type: in vitro ADME; details: 45 μM AGP, 500 ng/mL
Protocol: as §1

[15] = rat, plasma, po, 1 mg/kg, read-out: AUC
[16] = rat, plasma, po, 1 mg/kg, read-out: CL/F (converted)
[17] = rat, plasma, po, 1 mg/kg, read-out: Cmax
[18] = rat, plasma, po, 1 mg/kg, read-out: MRT
[19] = rat, plasma, po, 1 mg/kg, read-out: tmax
[20] = rats, p.o., ETV 1 mg/kg alone (SK14-061a (-))
[21] = rats, p.o., 1 mg/kg, 9 hr after oral administration

T1 sequence (P02768 25-609): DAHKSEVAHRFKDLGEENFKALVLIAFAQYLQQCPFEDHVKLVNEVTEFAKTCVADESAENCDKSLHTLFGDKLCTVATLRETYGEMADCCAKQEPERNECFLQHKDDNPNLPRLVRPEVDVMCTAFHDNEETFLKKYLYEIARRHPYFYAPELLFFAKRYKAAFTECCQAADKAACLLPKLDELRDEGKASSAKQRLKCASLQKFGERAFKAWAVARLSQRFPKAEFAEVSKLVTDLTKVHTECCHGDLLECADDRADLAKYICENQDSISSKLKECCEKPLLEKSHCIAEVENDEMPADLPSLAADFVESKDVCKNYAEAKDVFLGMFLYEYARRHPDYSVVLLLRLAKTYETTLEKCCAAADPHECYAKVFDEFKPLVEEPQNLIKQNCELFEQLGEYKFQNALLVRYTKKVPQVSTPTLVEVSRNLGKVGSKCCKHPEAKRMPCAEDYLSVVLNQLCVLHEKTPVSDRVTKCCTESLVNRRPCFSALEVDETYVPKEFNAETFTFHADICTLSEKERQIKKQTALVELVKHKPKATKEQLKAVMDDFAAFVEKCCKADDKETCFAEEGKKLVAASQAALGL

In the case of `N#C[C@]1(CO)O[C@@H](n2cnc3c(=O)[nH]c(N)nc32)C[C@@H]1O` [4′-CN-2′-deoxyguanosine], the “activity against HBVA181T/N236T” value [1] is listed as “highly active”, the “activity against wild-type HBV” value [2] is listed as “highly active” and the “activity against HBVL180M/S202G/M204V” value [3] is listed as “highly active”.

`C=C1[C@H](CO)[C@@H](O)C[C@@H]1n1cnc2c(=O)[nH]c(N)nc21` [ETV, entecavir] showed a half-life ([4]; rat, plasma, po, 1 mg/kg) of 1.98 ± 0.51 h, an AUC [4, 15] of 492 ± 31.5 ng·h/mL and a CL/F [4, 16] of 34 mL/min/kg. The Cmax [4, 17] was 135 ± 27.4 ng/mL, the MRT [4, 18] was 3.24 ± 0.68 h and the Tmax [4, 19] was 1.25 ± 0.43 h. It also gave an AUC [4, 20] of 261 ± 16.2 ng·h/mL, a CL/F [4, 20] of 64.2 ± 4.17 mL/min/kg and a Cmax [4, 20] of 147 ± 5.82 ng/mL. For the same molecule, the MRT [4, 20] was 1.35 ± 0.03 h, the Tmax [4, 20] was 0.75 h and the t1/2 [4, 20] was 0.72 ± 0.05 h.

In the case of `N#C[C@]1(CO)O[C@@H](n2cnc3c(O)ncnc32)C[C@@H]1O` [SK14-061a, 4′-cyano-2′-deoxyinosine], the “change of alanine aminotransferase (ALT) vs control rats” value [5] is reported as “no significant changes”, the “change of aspartate aminotransferase (AST) vs control rats” value [5] is reported as “no significant changes” and the “change of blood urea nitrogen (BUN) vs control rats” value [5] is reported as “no significant changes”. The “change of creatinine vs control rats” value [5] was “no significant changes”, the “binding rate to HSA” value [6] was “about 14.7 ± 0.03%” and the “distribution to liver compared with kidney” value [7] was “distributed at higher levels to the liver than the kidney”. For the same molecule, the “time of maximum distribution in the kidney” value ([7]; sampled at 1, 3 and 9 hr) was 1 h, the “time of maximum distribution in the liver” value ([7]; sampled at 1, 3 and 9 hr) was 1 h and the “activity against HIV-1M184V” value [8] was “potent activity; also recorded: highly active”. For the same molecule, the “SK14-061a accumulated in the urine as share of the administered dose” value ([9]; during 72 hr after oral administration, authors' other study) was “about 45%”, the dose excreted ([9]; rat, urine, po, rats, p.o., 1 mg/kg, 9 hr, taken together with bioavailability (approximately 65%), read-out: recovery of SK14-061a in urine taking bioavailability into account) was roughly 30% and the “amount of unchanged SK14-061a accumulated in the urine” value [9, 21] was “about 46 ± 17 μg”. The “unchanged SK14-061a in urine as share of the administered dose” value [9, 21] was “about 20%”, the half-life ([4]; rat, plasma, po, 1 mg/kg) was 4.07 ± 2.2 h and the AUC [4, 15] was 972 ± 185 ng·h/mL. The CL/F [4, 16] was 17.7 mL/min/kg, the Cmax [4, 17] was 165 ± 46.6 ng/mL and the MRT [4, 18] was 3.14 ± 2.16 h. The Tmax [4, 19] was 1.07 ± 0.4 h, the half-life ([10]; rat, plasma, iv, rats) was 3.01 ± 1.48 h and the AUC ([10]; rat, plasma, iv, rats, i.v., read-out: AUC) was 475 ± 82.2 ng·h/mL. It also gave a Cmax ([10]; rat, plasma, iv, rats) of 431 ± 36.3 ng/mL, an MRT ([10]; rat, plasma, iv, rats) of 3.58 ± 1.86 h and a clearance ([10]; rat, plasma, iv, rats) of 34.7 mL/min/kg. For the same molecule, the bioavailability ([10]; rat, plasma, oral, rats, p.o. vs i.v., read-out: F (bioavailability)) was roughly 65%, the CL/F ([10]; rat, plasma, po) was 55.3 mL/min/kg and the Cmax ([10]; rat, plasma, po) was 48.8 ± 11.8 ng/mL. It also gave an MRT ([10]; rat, plasma, po) of 5.47 ± 1.52 h, a half-life ([10]; rat, plasma, po, rats, alone (ETV (-))) of roughly 3.6 h and an AUC ([10]; rat, plasma, po, rats, p.o., alone (ETV (-)), read-out: AUC) of 308 ± 49.7 ng·h/mL. The Tmax ([10]; rat, plasma, po, rats, p.o., alone (ETV (-)), read-out: tmax) was 1.3 h, the “MAT (mean absorption time)” value ([10]; rats, p.o. vs i.v.) was 1.89 h and the AUC ([10]; rats, p.o., alone (ETV (-))) was 308 ± 49.7 ng·h/mL. For the same molecule, the Tmax ([10]; rats, p.o., alone (ETV (-))) was 1.29 ± 0.34 h, the “activity against HIV-1MDR” value [11] was “potent activity” and the fraction unbound at 500 ng/mL [12] was roughly 0.363. For the same molecule, the “non-metabolized form detected after incubation with rat microsomes” value [13] was 73.7 ± 10.7% and the “binding rate to AGP” value [14] was “about 22.1 ± 0.01%”.
